Test results reported in ChEMBL document CHEMBL1153142, “Scaffold hopping from pyridones to imidazo[1,2-a]pyridines. New positive allosteric modulators of metabotropic glutamate 2 receptor” (Bioorg Med Chem Lett, 2010).

Assays:
[1] = biological target: T1, Metabotropic glutamate receptor 2 (Homo sapiens, UniProt Q14416); assay: Allosteric modulation of human mGluR2 expressed in CHO cells by [35S]GTPgammaS binding assay relative to glutamate; assay type: functional, cell-based
Target sequence in this assay (Q14416 19-872 limits assumed): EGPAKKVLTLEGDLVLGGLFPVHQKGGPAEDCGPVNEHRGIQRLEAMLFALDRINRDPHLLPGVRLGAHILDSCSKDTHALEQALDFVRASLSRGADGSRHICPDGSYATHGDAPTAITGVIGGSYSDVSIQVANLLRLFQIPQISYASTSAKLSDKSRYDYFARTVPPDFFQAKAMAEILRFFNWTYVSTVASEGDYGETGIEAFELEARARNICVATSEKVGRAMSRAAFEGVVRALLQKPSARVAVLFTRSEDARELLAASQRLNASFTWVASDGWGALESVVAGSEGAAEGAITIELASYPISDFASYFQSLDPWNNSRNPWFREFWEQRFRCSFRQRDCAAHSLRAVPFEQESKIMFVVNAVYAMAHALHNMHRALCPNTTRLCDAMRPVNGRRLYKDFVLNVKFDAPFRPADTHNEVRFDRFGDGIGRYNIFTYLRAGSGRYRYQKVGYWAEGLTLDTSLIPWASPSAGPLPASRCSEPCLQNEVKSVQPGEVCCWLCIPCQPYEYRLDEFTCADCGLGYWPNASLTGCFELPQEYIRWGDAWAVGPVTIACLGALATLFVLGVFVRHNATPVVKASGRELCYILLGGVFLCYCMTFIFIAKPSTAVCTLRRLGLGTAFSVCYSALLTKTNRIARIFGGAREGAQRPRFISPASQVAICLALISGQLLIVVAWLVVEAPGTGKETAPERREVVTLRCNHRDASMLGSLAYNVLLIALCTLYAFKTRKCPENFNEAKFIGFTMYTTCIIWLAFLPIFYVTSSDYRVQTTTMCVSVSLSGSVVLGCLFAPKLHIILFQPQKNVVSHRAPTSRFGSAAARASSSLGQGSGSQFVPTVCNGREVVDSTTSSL

[2] = biological target: T1, Metabotropic glutamate receptor 2; assay: Allosteric modulation of human mGluR2 expressed in CHO cells by [35S]GTPgammaS binding assay; assay type: functional, cell-based
Target sequence in this assay (Q14416 whole entry): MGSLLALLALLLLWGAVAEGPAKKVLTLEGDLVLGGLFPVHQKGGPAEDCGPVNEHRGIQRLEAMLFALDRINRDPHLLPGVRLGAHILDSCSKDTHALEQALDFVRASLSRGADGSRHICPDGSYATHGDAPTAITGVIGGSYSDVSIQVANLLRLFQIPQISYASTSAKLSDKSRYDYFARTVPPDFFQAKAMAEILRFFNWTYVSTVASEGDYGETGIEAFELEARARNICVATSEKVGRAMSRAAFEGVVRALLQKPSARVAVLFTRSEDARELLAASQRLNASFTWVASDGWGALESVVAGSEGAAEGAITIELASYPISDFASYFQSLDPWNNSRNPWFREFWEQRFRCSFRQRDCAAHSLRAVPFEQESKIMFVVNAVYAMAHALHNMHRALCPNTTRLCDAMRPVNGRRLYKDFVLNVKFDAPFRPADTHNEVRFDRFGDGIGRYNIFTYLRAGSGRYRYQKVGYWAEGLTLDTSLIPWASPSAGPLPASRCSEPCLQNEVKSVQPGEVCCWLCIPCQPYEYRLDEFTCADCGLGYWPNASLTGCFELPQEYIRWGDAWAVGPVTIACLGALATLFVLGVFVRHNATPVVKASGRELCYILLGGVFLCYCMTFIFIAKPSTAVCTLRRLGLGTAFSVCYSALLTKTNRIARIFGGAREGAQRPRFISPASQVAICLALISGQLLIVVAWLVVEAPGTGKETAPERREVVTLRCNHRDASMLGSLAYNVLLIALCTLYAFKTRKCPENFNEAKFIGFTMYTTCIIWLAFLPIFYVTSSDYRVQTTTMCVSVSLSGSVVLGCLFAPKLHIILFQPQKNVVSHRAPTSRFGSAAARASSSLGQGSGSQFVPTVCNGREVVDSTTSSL

Row | Emax [1] | EC50 [2] | Compound
1 | 272% |  | CC(C)(C)c1ccc(-c2ccn3c(CC(F)(F)F)cnc3c2C#N)cc1
2 | 231% |  | N#Cc1c(N2CCN(c3ncccn3)CC2)ccn2c(CC(F)(F)F)cnc12
3 | 123% |  | N#Cc1c(-c2ccc(N3CCCCC3)cc2)ccn2c(CC(F)(F)F)cnc12
4 | 214% | > 3.16 µM | CCc1cnc2c(C#N)c(N3CCN(c4ncccn4)CC3)ccn12
5 | 200% |  | N#Cc1c(-c2ccc(Oc3ccccc3)cc2)ccn2c(CC(F)(F)F)cnc12
6 | 128% |  | Cc1cc(C)nc(N2CCN(c3ccn4c(CC(F)(F)F)cnc4c3C#N)CC2)n1
7 | 248% | > 3.16 µM | CCCc1cnc2c(C#N)c(N3CCN(c4ncccn4)CC3)ccn12
8 | 187% |  | N#Cc1c(-c2ccc(NC3CC3)c(Cl)c2)ccn2c(CC(F)(F)F)cnc12
9 | 222% |  | N#Cc1c(-c2ccc(OCc3ccccc3)cc2)ccn2c(CC(F)(F)F)cnc12
10 | 213% |  | Cc1c(OCc2cccc(-c3ccc(C(=O)O)cc3)c2)cc2c(c1C)C(=O)C(C1CCCC1)C2 (centres undefined)
11 | 73% | > 3.16 µM | N#Cc1c(N2CCN(c3ccccc3)CC2)ccn2c(-c3ccccc3)cnc12
12 | 142% |  | CCc1cnc2c(C#N)c(N3CCN(c4nc(C)cc(C)n4)CC3)ccn12
13 | 241% |  | CCCc1cnc2c(C#N)c(N3CCN(c4ccccc4)CC3)ccn12
14 | 229% |  | N#Cc1c(N2CCN(c3ncccn3)CC2)ccn2c(CCC3CC3)cnc12
15 | 179% |  | CCCc1cnc2c(C#N)c(N3CCN(c4nc(C)cc(C)n4)CC3)ccn12
16 | 235% |  | CCCCn1ccc(N2CCN(c3nc(C)cc(C)n3)CC2)c(C#N)c1=O
